PMC10714399, “Open Source Antibiotics: Simple Diarylimidazoles Are Potent against Methicillin-Resistant Staphylococcus aureus” (ACS Infectious Diseases, 2023)
≈ marks a conversion by molar mass, not a printed value. Where “and” joins values, the source holds several entries; their conditions need not be identical. Equal entries are not always repeated. Where two headings read alike, the source gives them in different places.

Assays:
[1] = tested on: Staphylococcus aureus NCTC 13373 (mecA-positive; methicillin-resistant); assay: In vitro antibacterial activity, MIC (UCL School of Pharmacy assay), MRSA; format: cell-based; settings: for MIC: Staphylococcus aureus
Procedure, shortened: (§1)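 MIC determined over 32–0.03 μg/mL in 2-fold steps, with at most 2% DMSO, in isosensitest broth. Organisms were suspended in PBS to A600 0.1 (about 1 × 10^8 CFU/mL), diluted 1:100 and inoculated; vancomycin served as QC compound.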

[2] = tested on: S. aureus ATCC 25923 (methicillin-susceptible); assay: In vitro antibacterial activity, MIC (UCL), MSSA; format: cell-based, Staphylococcus aureus; settings: for MIC: Staphylococcus aureus
Procedure, shortened: as §1

Aqueous solubility = format: physicochemical; settings: thermodynamic from solid
Description: (§2) To guide our initial SAR exploration work, we obtained liver microsomal intrinsic clearance data for 5 of the 18 compounds assayed by CO-ADD (Supporting Information - CDCO Report and Supporting Information - Biology). We then acquired intrinsic clearance (CLint), plasma protein binding (PPB), and solubility data on further compounds throughout the SAR campaign (Supporting Information - Biology, Tables S3 and S4). […] The more polar compounds (lower LogD) had reduced PPB and were more metabolically stable.
(§3) Table S4. ADME and Pharmacokinetics: compounds only appearing in the Supplementary […]
(§4) MRSA Aqueous HLM CLint Rat Hep CLint
(§5) Cmpd MIC Solubility Human PPB (%) (µL/min/mg (µL/min/10x6 LogD7.4
(§6) (µg/mL) (µM) protein) cells)
(§7) ADME and toxicity for compounds were measured according to procedures outlined in the manuscript submitted in parallel to this one;2 other procedures were used for those compounds analysed by Monash University (in vitro ADME) or UCL (toxicity), both described in the main

LogD7.4 (Chrom Log D) = format: physicochemical
Description: as §2, §3, §4, §5, §6, §7

[3] = Human plasma protein binding (PPB); format: in vitro ADME; settings: human, plasma, human plasma, NEU
Description: (§8) To guide our initial SAR exploration work, we obtained liver microsomal intrinsic clearance data for 5 of the 18 compounds assayed by CO-ADD (Supporting Information - CDCO Report and Supporting Information - Biology). We then acquired intrinsic clearance (CLint), plasma protein binding (PPB), and solubility data on further compounds throughout the SAR campaign (Supporting Information - Biology, Tables S3 and S4).
as §3, §4, §5, §6, §7

[4] = Human liver microsome intrinsic clearance; format: in vitro ADME
Description: as §8, §3, §4, §5, §6, §7

[5] = Rat hepatocyte intrinsic clearance; format: in vitro ADME
Description: as §8, §3, §4, §5, §6, §7

[6] = tested on: Enterococcus faecalis ATCC 51299 (vanA-positive; vancomycin-resistant); assay: In vitro antibacterial activity, MIC (UCL), VRE; format: cell-based
Procedure, shortened: as §1

[7] = tested on: MRC-5SV2 (human lung fibroblast cell line); assay: Toxicity against MRC-5SV2; format: cell-based
Experimental: as §7

[8] = tested on: PMM (primary mouse macrophages); assay: Toxicity against PMM; format: cell-based
Experimental: as §7

VSE = assay: In vitro antibacterial activity, MIC, VSE; format: cell-based; settings: for MIC: read-out: VSE MIC (UCL)
[9] = NEU, read-out: Aqueous Solubility (NEU)
[10] = chromatographic system (Chrom Log D), pH 7.4, NEU, read-out: LogD 7.4 (NEU)
[11] = read-out: Human PPB (NEU) (converted)
[12] = human liver microsomes, NEU, read-out: HLM CLint (NEU)
[13] = rat hepatocytes, NEU, read-out: Rat Hep CLint (NEU)

SMILES	MIC ([1]; UCL, read-out: MRSA MIC (UCL)) [µg/mL]	MIC ([2]; read-out: MSSA MIC (UCL)) [µg/mL]	solubility (Aqueous solubility; [9]) [µM]	chromatographic logD (LogD7.4 (Chrom Log D); [10])	fraction unbound [3, 11]	microsomal CLint [4, 12] [µL/min/mg]	hepatocyte CLint [5, 13] [µL/min/1e6 cells]	MIC ([6]; read-out: VRE MIC (UCL)) [µg/mL]	MIC (VSE) [µg/mL]	other results
CCN(CC)c1ccc(-c2c(-c3ccccn3)nc3ccccn23)cc1 [OSA_001011]	4 (≈ 11.7 µM)	4 (≈ 11.7 µM)	38 (≈ 13 µg/mL)	4.3	0.004	159	192	–	–	–
COc1ccn2c(-c3cccc(Cl)n3)c(-c3ccccn3)nc2c1 [OSA_000857]	> 32	–	37 (≈ 12.5 µg/mL)	2.5	0.035	124	12.9	> 32	–	MRC5 TC50 ([7]; MRC5 cells): 24.2 µM; PMM TC50 ([8]; PMM): 64 µM
COc1cccn2c(N(C)c3ccc(F)cc3)c(-c3ccccn3)nc12 [OSA_001001]	16 (≈ 45.9 µM)	16 (≈ 45.9 µM)	26 (≈ 9.06 µg/mL)	3.5	0.026	65.9	> 300	–	–	–
Fc1ccc(Nc2c(-c3ccccn3)nc3ccccn23)cc1 [OSA_000987]	8 (≈ 26.3 µM)	16 (≈ 52.6 µM)	0.5 (≈ 0.152 µg/mL)	3.3	0.017	148	151	32 (≈ 105 µM)	32 (≈ 105 µM)	MRC5 TC50 ([7]; MRC5 cells): 7.65 µM and 6.04 µM
COc1ccnc(-c2nc3cc(OC)ccn3c2N(C)c2ccc(F)cc2)c1 [OSA_001000]	2 (≈ 5.29 µM)	8 (≈ 21.1 µM)	12 (≈ 4.54 µg/mL)	3.1	< 0.033	51.2	> 300	8 (≈ 21.1 µM)	8 (≈ 21.1 µM)	–
CSc1ccc2nc(-c3ccccn3)c(N(C)c3ccc(F)cc3)n2c1 [OSA_001004]	8 (≈ 22 µM)	8 (≈ 22 µM)	7 (≈ 2.55 µg/mL)	4.5	0.0054	> 300	> 300	–	–	–
COc1ccc(-c2nc3ccc(OC)cn3c2N(C)c2ccc(F)cc2)nc1 [OSA_000999]	8 (≈ 21.1 µM)	8 (≈ 21.1 µM)	27 (≈ 10.2 µg/mL)	–	0.0063	–	> 300	16 (≈ 42.3 µM)	16 (≈ 42.3 µM)	HLM CLint (NEU) ([4]; human liver microsomes, NEU): 261 uL/min/mg protein
CC(C)CN(c1ccc(F)cc1)c1c(-c2ccccn2)nc2ccc(F)cn12 [OSA_001024]	–	–	–	> 4.2	–	–	–	–	–	MIC ([1]; UCL assay, read-out: MRSA MIC (ug/mL) (UCL)): 8 µg/mL (≈ 21.1 µM); MIC ([2]; UCL assay, read-out: MSSA MIC (ug/mL) (UCL)): 8 µg/mL (≈ 21.1 µM); solubility (Aqueous solubility; NEU, read-out: Aqueous Solubility (uM) (NEU)): 17 µM (≈ 6.43 µg/mL); fraction unbound ([3]; read-out: Human PPB (%) (NEU) (converted)): 0.0014; microsomal CLint ([4]; human liver microsomes, NEU, read-out: HLM CLint (uL/min/mg protein) (NEU)): 51.2 µL/min/mg; hepatocyte CLint ([5]; rat hepatocytes, NEU, read-out: Rat Hep CLint (uL/min/10x6 cells) (NEU)): 117 µL/min/1e6 cells
Cc1ccc(Nc2c(-c3ccccn3)nc3ccccn23)cc1 [OSA_000988]	4 (≈ 13.3 µM)	4 (≈ 13.3 µM)	–	–	0.007	86.9	> 300	16 (≈ 53.3 µM)	16 (≈ 53.3 µM)	–
c1ccc(-c2nc3ccccc3n2-c2ccc(N3CCCCC3)cc2)nc1 [compound 994]	–	–	–	–	–	–	–	–	–	MRSA MIC [1]: 16 µg/mL; MSSA MIC [2]: 32 µg/mL; VRE MIC [6]: 32 µg/mL; VSE MIC (VSE): 32 µg/mL; MRC5 TC50 [7]: 7.0 µg/mL; PMM TC50 [8]: 5.4 µg/mL
Fc1ccc(-c2c(-c3ccccn3)nc3ccccn23)cc1 [compound 859]	–	–	–	–	–	–	–	–	–	activity against MRSA, in words [1]: inactive; MIC ([1]; 16 h, read-out: MRSA MIC): > 32 µg/mL; MIC ([1]; read-out: MRSA MIC): 32 µg/mL (≈ 111 µM); MIC ([6]; read-out: VRE MIC): > 32 µg/mL; solubility (Aqueous solubility; read-out: Aqueous Solubility): 178 µM (≈ 51.5 µg/mL); chromatographic logD (LogD7.4 (Chrom Log D); pH 7.4, read-out: LogD7.4): 3; microsomal CLint ([4]; human, liver microsomes, read-out: HLM CLint): 168 µL/min/mg; hepatocyte CLint ([5]; rat, hepatocytes, Figure 4, read-out: Rat Hep CLint): 49.8 µL/min/1e6 cells; MRC5 TC50 [7]: 3.0 µg/mL; PMM TC50 [8]: 9.3 µg/mL
CN(c1ccc(F)cc1)c1c(-c2ccccn2)nc2ccc(Br)cn12 [OSA_001003]	16 (≈ 40.3 µM)	16 (≈ 40.3 µM)	4 (≈ 1.59 µg/mL)	4.2	0.0018	61.6	> 300	–	–	–
